Where “and” joins values, the source holds several entries; their conditions need not be identical. Equal values may be shown once.
Columns and labels:
[1] = healthy volunteer population (Evans 2013); cited from earlier work
[2] = Relative bioavailability study, tablet vs liquid formulation
[3] = system: rats with collagen-induced arthritis; conditions: rats with collagen-induced arthritis (Hill R et al., 2015); cited from earlier work
healthy volunteers = conditions: Phase 1, healthy volunteers (Smith PF 2017); cited from earlier work
patients with pemphigus = test: Safety (adverse events), Part B
Method: (§1) Specific assessments to evaluate treatment safety included the following: (1) the frequency and type of AEs; (2) clinical laboratory testing; (3) SNAQ appetite questionnaire; and (4) vital signs. Typically, patients remained under observation in the clinic for 2 hours after administration of the first PRN1008 dose and until the PK sample was drawn.
(§2) The primary safety outcome measures were incidence of treatment-emergent AEs (TEAEs), including clinically significant changes in physical examination, laboratory tests, and vital signs.
(§3) Investigators were instructed to report in detail all AEs encountered during the clinical study in the source documents, from the date of participant consent throughout the follow-up visit. Investigators were also instructed to report pre-existing conditions that worsen during a study were instructed as AEs, with the exception of the disease under study as it was expected that there may be variation in pemphigus disease activity intended to be captured in other measurements.
(§4) Investigators were instructed to grade AEs based on the NCI CTCAE, Version 4.0 or higher.
(§5) Investigators were instructed to use their knowledge of the study participant, the circumstances surrounding the event, and an evaluation of any potential alternative causes to determine whether or not an AE is considered to be related to the study drug, indicating “yes” or “no” accordingly.

[4] = Plasma concentration of PRN1008, Part A; format: in vivo; conditions: human, oral, read-out: plasma levels at 12 hours post-dose (trough point)
[5] = system: patients with newly diagnosed or relapsing pemphigus; test: Phase 2 study Part A (400 mg BID up to 600 mg BID, 12-week treatment): clinical activity; format: in vivo, human; conditions: for patients who achieved complete remission (CR): n = 24
[6] = system: canines with naturally occurring PF; conditions: canines with naturally occurring PF (Murrell DF, 2019); cited from earlier work
[7] = system: fetal development, male fertility; test: Preclinical reproductive toxicity studies; format: in vivo
[8] = system: anti-dsg 1 and anti-dsg 3 autoantibody levels; test: Anti-dsg autoantibody levels by ELISA, Part A; conditions: including patients with high autoantibody levels at baseline
Description: PK outcome measures investigated included plasma concentrations of PRN1008 at approximately the time of maximum concentration on Day 1 and at various subsequent times during outpatient dosing.

[9] = system: patients with newly diagnosed or relapsing pemphigus; test: Phase 2 study Part B (400 mg QD up to 600 mg BID, 24-week treatment): clinical activity; conditions: for Median PDAI: 12 at day 1
Method: Generally, clinical response is shown by some improvement seen in first 2 weeks with CDA achieved by the Week 5 visit. […] Typically, clinical response and tolerability were assessed at each visit.
PDAI and ABSIS assessments were employed to monitor pemphigus disease activity. […] Photography was used to document skin disease changes where appropriate.
Part B was a multicenter, open-label, single-arm Phase 2 study (NCT02704429) designed to further evaluate the efficacy and safety of PRN1008 in pemphigus patients. Patients received an initial dose of 400 mg PRN1008 once a day (QD) with possible dose adjustment up to 600 mg BID at investigator discretion. Treatment duration was 24 weeks with an additional 4 weeks of follow-up off treatment.

[10] = system: patients with pemphigus (PV and PF); test: Interim data as of Jan. 18, 2018 in patients with pemphigus (PV and PF); format: in vivo, human
Method: As of Jan. 18, 2018, PRN1008 had been administered to 21 patients with pemphigus (pemphigus vulgaris (PV) and pemphigus foliaceus (PF)), 18 of whom had 4 or more weeks of treatment with […]1008 was well-tolerated in this study. […] Three patients achieved CDA on no CS. Two patients required high-dose CS temporarily during PRN1008 treatment due to worsening of disease activity. Four patients achieved complete remission (CR) on 1 to 20 mg/day of CS, three achieved CR at Week 13 (25%), and one achieved CR at Week 21.

[11] = system: patients with pemphigus (Safety Population); test: Safety (treatment-emergent adverse events), Part A
Method: as §1, §2, §3, §4, §5

C=CC(=O)Nc1cccc(Nc2nc(Nc3ccc(OCCOC)cc3)ncc2F)c1 [CC-292]
tolerability [1]: well tolerated

CC(C)(C=C(C#N)C(=O)N1CCC[C@@H](n2nc(-c3ccc(Oc4ccccc4)cc3F)c3c(N)ncnc32)C1)N1CCN(C2COC2)CC1 [PRN1008, (R)-2-[3-[4-amino-3-(2-fluoro-4-phenoxy-phenyl)pyrazolo[3,4-d]pyrimidin-1-yl]piperidine-1-carbonyl]-4-methyl-4-[4-(oxetan-3-yl)piperazin-1-yl]pent-2-enenitrile]
exposure of the tablet relative to the equal dose of the liquid formulation [2]: ~ 70% | disease symptoms and outcomes [3]: improved disease symptoms and outcomes | discontinuation due to an adverse event (healthy volunteers): no participants discontinued treatment due to an adverse event | most commonly reported adverse events (healthy volunteers): gastrointestinal adverse events, including nausea/vomiting and diarrhea | serious adverse events or deaths (healthy volunteers): No serious adverse events or deaths were reported | tolerability (patients with pemphigus): well tolerated | severity of treatment-related AEs (patients with pemphigus; all treatment-related AEs): mild-moderate and transient | Treatment-related AEs with an incidence greater than 10% (patients with pemphigus; mild to moderate (grade 1 and 2)): nausea, abdominal distension, infection, and oropharyngeal pain | patients who reported a mild related infection (patients with pemphigus; of 15, grade 1 nasopharyngitis, grade 1 tracheitis): 2 patients | concentration at 12 h [4]: 9.5 ng/mL | Efficacy across subgroups [5]: 43-64% | additional patients who achieved CR at Week 13 without CS use [5]: four | patients who achieved CDA at or prior to the Week 5 visit without the use of CS [5]: Three | patients who did not require dose escalation to achieve response [5]: 90% | patients who needed dose escalation beyond the standard 400 mg bid [5]: three | patients who achieved control of disease activity (CDA) ([5]; 400 mg BID (up to 600 mg BID), 2 weeks / study day 15, n = 26): 27% | CDA with low dose CS by Day 29, dosing subgroup ([5]; 400 mg BID subgroup, 12 of 23): 52% | CDA with low dose CS by Day 29, dosing subgroup ([5]; 500 mg BID subgroup, 1 of 1): 100% | CDA with low dose CS by Day 29, dosing subgroup ([5]; 600 mg BID subgroup, 1 of 2): 50% | patients who achieved control of disease activity (CDA) with low dose CS ([5]; 4 weeks / Day 29, CS <= 0.5 mg/kg/day, n = 26 (primary endpoint), 0.5 mg/kg/day): 54% and > 50% | CDA rate in newly diagnosed patients ([5]; 6 of 8): 75% | patients who achieved CR during the study period ([5]; 6 of 26): 23% | patients who achieved complete remission (CR) ([5]; 12 weeks (treatment period), patients that completed the study): 16.7% and 17% | patients who achieved control of disease activity (CDA) with low dose CS ([5]; 12 weeks / Day 85): 73% | CDA rate in relapsing patients ([5]; 13 of 18): 72% | patients who achieved complete remission (CR) ([5]; 24 weeks (12 weeks on, 12 weeks off treatment; follow-up by Day 141)): 25% | PDAI scores on the Day 85 visit ([5]; all of 11 patients with milder disease): ≤ 5 | Mean CS dose after 12 weeks of treatment ([5]; all patients, SD = 10, baseline 14 mg/day (SD = 11)): 12 mg/day | mean CS dose at CR ([5]; dropped from 14 mg/day at baseline): 8 mg/day | additional patients who achieved CR on CS <= 0.5 mg/kg/day by Day 141 ([5]; follow-up period): two | patients who achieved CR on CS doses <= 0.5 mg/kg/day by Day 85 ([5]; four patients of 26): 15% | patients who needed CS rescue > 0.5 mg/kg ([5]; in the 12 weeks off PRN1008): 4 patients | median reduction in PDAI scores ([5]; over 12 weeks of treatment): 70% | mean CS dose at the time CR was achieved ([5]; patients who achieved CR, range 1-20 mg): 8 mg | median CR duration ([5]; post-treatment): 96 days | mean CS dose during CR duration ([5]; post-treatment, range 0.7-20 mg/day): 8 mg/day | CDA rate in patients with a positive anti-dsg 3 antibody ([5]; slightly higher than overall mITT population): 64% | disease symptoms and outcomes [6]: improved disease symptoms and outcomes | reproductive toxicity [7]: not expected to harm fetal development or male fertility | median reduction of autoantibody levels [8]: up to 65% | patients who achieved CDA ([9]; 400 mg QD only, 2 weeks, n = 14 (FIG. 6)): 29% | patients who achieved CDA ([9]; 400 mg QD only, 4 weeks, n = 14 (FIG. 6)): 43% | patients who achieved CDA ([9]; 400 mg QD only, 4 weeks, n = 14 (FIG. 8B, 80% CI)): 50% | patients who achieved CDA ([9]; 400 mg QD only, 12 weeks, n = 14 (FIG. 6)): 50% | patients who achieved CDA ([9]; 400 mg QD only, 12 weeks, n = 14 (FIG. 8B, 80% CI)): 50% | patients who achieved complete remission (CR) ([9]; 400 mg QD only, 12 weeks, n = 14 (FIG. 9B)): 7% | patients who achieved complete remission (CR) ([9]; 400 mg QD only, 24 weeks, n = 14 (FIG. 9B)): 7% | patients who achieved complete remission (CR) ([9]; 400 mg QD only, 28 weeks (24 on, 4 off treatment), n = 14 (FIG. 9B)): 7% | patients who achieved CDA ([9]; 400 mg QD with dose adjustment up to 600 mg BID, 2 weeks, n = 15 (FIG. 7)): 27% | patients who achieved CDA ([9]; 400 mg QD with dose adjustment up to 600 mg BID, 4 weeks, n = 15 (FIG. 7)): 53% | patients who achieved CDA ([9]; 400 mg QD with dose adjustment up to 600 mg BID, 12 weeks, n = 15 (FIG. 7)): 80% | daily corticosteroid usage ([9]; 24 weeks of PRN1008 treatment): decreased | Median PDAI ([9]; at 12 weeks): 4 | patients having reached a PDAI of 1 or 0 ([9]; at 24 weeks, 10 out of 15): 67% | Median PDAI ([9]; at 24 weeks): 1 | reduction in mean PDAI activity score ([9]; by 24 weeks): 79% | reduction in median PDAI activity score ([9]; by 24 weeks): 94% | patients who achieved CDA ([9]; dose adjustment up to 600 mg BID, 4 weeks, n = 15 (FIG. 8A, 80% CI)): 60% | patients who achieved complete remission (CR) ([9]; dose adjustment up to 600 mg BID, 12 weeks (FIG. 9A)): 13% | patients who achieved CDA ([9]; dose adjustment up to 600 mg BID, 12 weeks, n = 15 (FIG. 8A, 80% CI)): 87% | patients who achieved complete remission (CR) ([9]; dose adjustment up to 600 mg BID, 24 weeks (FIG. 9A)): 33% | patients who achieved complete remission (CR) ([9]; dose adjustment up to 600 mg BID, 28 weeks (24 on, 4 off treatment) (FIG. 9A)): 40% | patients who achieved CDA on no CS [10]: Three | patients who achieved CR at Week 21 [10]: one | patients who achieved complete remission (CR) on 1 to 20 mg/day of CS [10]: Four | patients who met the primary endpoint CDA on CS <= 0.5 mg/kg/day by the Week 5 visit ([10]; 11 of 18 patients with efficacy data): 61% | tolerability ([10]; 21 patients with pemphigus): well-tolerated | patients who required high-dose CS temporarily due to worsening of disease activity ([10]; during PRN1008 treatment): Two | patients who achieved CR at Week 13 ([10]; three patients): 25% | AEs commonly associated with marketed BTKi (major hemorrhage, atrial fibrillation, thrombocytopenia/neutropenia) ([11]; Part A): no cases | AEs related to the study drug: headache ([11]; Part A): 11% | AEs related to the study drug: nausea ([11]; Part A): 15% | AEs related to the study drug: upper abdominal pain ([11]; Part A): 11% | patients who experienced Serious AEs (SAE) ([11]; Part A): Three | patients who experienced a TEAE ([11]; Part A Safety Population, 20 of 27): 74% | only treatment related SAE ([11]; Part A, Day 26, patient with type II diabetes): cellulitis (Grade 3) | AEs that were Grade 1 or 2 ([11]; Part A, number of AEs out of all AEs): 94/97

Reference: patent US20230158033A1, “Method of Treating Pemphigus by Administering (R)-2-[3-[4-Amino-3-(2-Fluoro-4-Phenoxy-Phenyl)Pyrazolo[3,4-D]Pyrimidin-1-YL]Piperidine-1-Carbonyl]-4-Methyl-4-[4-(Oxetan-3-YL)Piperazin-1-YL]Pent-2-Enenitrile” (Principia Biopharma Inc., priority 2019, published 2023)
